Data published in ChEMBL document CHEMBL1201862, “PubChem BioAssay data set” (2004).
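Compound exposure: 48 hours, 5 concentrations, 96-well plates. At the GI50, growth is halved.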 The source made the active and inactive calls. Cut-off read from the data, not from the text of the source: active = GI50 up to about 1.1 µM and inactive = higher.

Experiments:
Assay in all cases: inhibition of tumour cell growth, NCI panel, 48 h
COLO 205 = test system: COLO 205
NCI-H522 = test system: NCI-H522
ACHN = test system: ACHN
OVCAR-5 = test system: OVCAR-5
UO-31 = test system: UO-31
SK-MEL-2 = test system: SK-MEL-2
UACC-257 = test system: UACC-257
NCI-H23 = test system: NCI-H23
SF-268 = test system: SF-268
T47D = test system: T47D
HCT-116 = test system: HCT-116
NCI-H460 = test system: NCI-H460
TK-10 = test system: TK-10
HL-60 = test system: HL-60
Malme-3M = test system: Malme-3M
OVCAR-4 = test system: OVCAR-4
HOP-92 = test system: HOP-92
CAKI-1 = test system: CAKI-1
SK-OV-3 = test system: SK-OV-3

Measured: GI50

CCn1ncc2c1nc(-c1ccccc1)c[n+]2[O-]
inactive: COLO 205 > 100 µM | NCI-H522 90.4 µM | ACHN > 100 µM | OVCAR-5 > 100 µM | UO-31 62.8 µM | SK-MEL-2 > 100 µM | UACC-257 > 100 µM | NCI-H23 > 100 µM | SF-268 > 100 µM | T47D > 100 µM | HCT-116 63.7 µM | NCI-H460 > 100 µM

CC(C)(C)CC(C)(C)c1cc2c(O)c(c1)Cc1cc(C(C)(C)CC(C)(C)C)cc(c1O)Cc1cc(C(C)(C)CC(C)(C)C)cc(c1O)Cc1cc(C(C)(C)CC(C)(C)C)cc(c1O)Cc1cc(C(C)(C)CC(C)(C)C)cc(c1O)Cc1cc(C(C)(C)CC(C)(C)C)cc(c1O)Cc1cc(C(C)(C)CC(C)(C)C)cc(c1O)Cc1cc(C(C)(C)CC(C)(C)C)cc(c1O)C2
inactive: COLO 205 > 100 µM | NCI-H522 > 100 µM | ACHN > 100 µM | OVCAR-5 > 100 µM | UO-31 > 100 µM | SK-MEL-2 > 100 µM | UACC-257 > 100 µM | TK-10 > 100 µM | HL-60 > 100 µM | NCI-H23 > 100 µM | SF-268 > 100 µM | Malme-3M > 100 µM | OVCAR-4 > 100 µM | HCT-116 > 100 µM | NCI-H460 > 100 µM | HOP-92 > 100 µM

Oc1c2cc(Br)cc1CCc1cc(Br)cc(c1O)CC2
inactive: COLO 205 14.4 µM | NCI-H522 14.4 µM | ACHN 23.7 µM | OVCAR-5 23.2 µM | UO-31 12.8 µM | SK-MEL-2 20 µM | UACC-257 20.2 µM | TK-10 31.6 µM | HL-60 15.7 µM | NCI-H23 28.6 µM | SF-268 22.6 µM | T47D 38.8 µM | Malme-3M 28.8 µM | CAKI-1 36 µM | SK-OV-3 20.8 µM | HCT-116 15.1 µM | NCI-H460 18.5 µM

CCOC(=O)c1c(-c2ccccc2)c(C)cn1C
inactive: NCI-H522 > 10 µM | ACHN > 10 µM | OVCAR-5 > 10 µM | UO-31 > 10 µM | SK-MEL-2 > 10 µM | UACC-257 > 10 µM | TK-10 > 10 µM | NCI-H23 > 10 µM | SF-268 > 10 µM | OVCAR-4 > 10 µM | SK-OV-3 > 10 µM | HCT-116 > 10 µM | NCI-H460 > 10 µM | HOP-92 > 10 µM

CCc1nc2ccc(C(F)(F)F)cc2[nH]c1=O
inactive: COLO 205 > 100 µM | ACHN > 100 µM | OVCAR-5 > 100 µM | UO-31 61.7 µM | SK-MEL-2 > 100 µM | UACC-257 > 100 µM | TK-10 > 100 µM | HL-60 > 100 µM | NCI-H23 > 100 µM | SF-268 > 100 µM | Malme-3M > 100 µM | OVCAR-4 52.2 µM | CAKI-1 80.7 µM | SK-OV-3 > 100 µM | HCT-116 > 100 µM | NCI-H460 > 100 µM | HOP-92 > 100 µM

Cc1nc2c(n1C(C)(C)C)C(=O)c1ccccc1C2=O
inactive: COLO 205 64.1 µM | NCI-H522 44 µM | ACHN 48.6 µM | UO-31 37.2 µM | SK-MEL-2 80.4 µM | UACC-257 42.6 µM | TK-10 82 µM | HL-60 46.2 µM | NCI-H23 37.8 µM | SF-268 54.5 µM | Malme-3M 44.6 µM | OVCAR-4 92.9 µM | SK-OV-3 > 100 µM | HCT-116 54 µM | NCI-H460 36.7 µM | HOP-92 9.31 µM

O=C(OCc1ccccc1)N1N=NC2C1C1CC(OCc3ccccc3)(OCc3ccccc3)C2O1 (configuration not stated)
inactive: COLO 205 > 100 µM | ACHN > 100 µM | OVCAR-5 > 100 µM | UO-31 > 100 µM | SK-MEL-2 > 100 µM | UACC-257 > 100 µM | HL-60 > 100 µM | NCI-H23 > 100 µM | SF-268 > 100 µM | Malme-3M > 100 µM | OVCAR-4 > 100 µM | CAKI-1 > 100 µM | SK-OV-3 > 100 µM | NCI-H460 > 100 µM | HOP-92 > 100 µM

CCCCCCSc1nc(COC(=O)NC)c(COC(=O)NC)n1C
inactive: COLO 205 > 100 µM | NCI-H522 > 100 µM | ACHN > 100 µM | OVCAR-5 > 100 µM | UO-31 > 100 µM | SK-MEL-2 > 100 µM | UACC-257 > 100 µM | TK-10 > 100 µM | HL-60 > 100 µM | NCI-H23 > 100 µM | SF-268 > 100 µM | T47D > 100 µM | OVCAR-4 > 100 µM | CAKI-1 > 100 µM | SK-OV-3 > 100 µM | HCT-116 > 100 µM | NCI-H460 > 100 µM

Cc1c(Cc2ccccc2)n(C(C)OCCN(OC(=O)Oc2ccccc2)C(=O)Oc2ccccc2)c(=O)[nH]c1=O (configuration not stated)
inactive: COLO 205 18.3 µM | NCI-H522 14.5 µM | ACHN 26.3 µM | OVCAR-5 17.2 µM | UO-31 14.5 µM | SK-MEL-2 19.7 µM | UACC-257 15 µM | NCI-H23 16.3 µM | SF-268 14.7 µM | OVCAR-4 19.7 µM | CAKI-1 18.7 µM | SK-OV-3 17.4 µM | HCT-116 20.5 µM | NCI-H460 17.8 µM | HOP-92 13.5 µM

CC(=O)N(C(C)=O)n1c(-c2ccccc2)n[nH]c1=O
inactive: COLO 205 > 100 µM | NCI-H522 > 100 µM | ACHN > 100 µM | OVCAR-5 > 100 µM | UO-31 > 100 µM | SK-MEL-2 > 100 µM | UACC-257 > 100 µM | TK-10 > 100 µM | NCI-H23 > 100 µM | SF-268 > 100 µM | OVCAR-4 > 100 µM | SK-OV-3 > 100 µM | HCT-116 > 100 µM | HOP-92 > 100 µM

N=c1oc2cc(O)ccc2cc1C(=O)NCc1ccccc1
inactive: COLO 205 12.4 µM | NCI-H522 16.3 µM | ACHN 14.5 µM | OVCAR-5 53.7 µM | UO-31 25.6 µM | SK-MEL-2 14.4 µM | UACC-257 44.7 µM | TK-10 32.1 µM | NCI-H23 19.5 µM | SF-268 23.1 µM | T47D 8.61 µM | Malme-3M 21.7 µM | OVCAR-4 31.6 µM | CAKI-1 20.3 µM | SK-OV-3 16.2 µM | HCT-116 22.2 µM | NCI-H460 25.8 µM

COCCNC1CCC(=O)c2[nH]c3ccccc3c21 (configuration not stated)
inactive: COLO 205 > 100 µM | NCI-H522 > 100 µM | ACHN > 100 µM | OVCAR-5 > 100 µM | UO-31 65.8 µM | SK-MEL-2 > 100 µM | UACC-257 > 100 µM | TK-10 > 100 µM | HL-60 > 100 µM | NCI-H23 > 100 µM | SF-268 > 100 µM | Malme-3M > 100 µM | OVCAR-4 > 100 µM | CAKI-1 > 100 µM | HCT-116 > 100 µM | NCI-H460 > 100 µM | HOP-92 > 100 µM
